{"source": "patent US20120122085A1", "about": "“RECQL4/RECQL4 VARIANT-P53 COMPLEX FOR ALTERED MITOCHONDRIAL FUNCTION IN ROTHMUND-THOMSON SYNDROME” (NATIONAL INSTUTUTE OF IMMUNOLOGY, priority 2009, published 2012)", "tested_on": "RTS patient cells", "assay": "Intracellular ROS in RTS cells measured by oxidation of CM-H2DCFDA after DNA damage", "format": "cell-based, human", "conditions": "post exposure to mitomycin C, FIG. 10E", "from_the_text": "By transmission electron microscopy (TEM) we observed that the mitochondrial cristae were distorted and the intercristal space expanded in all the RTS fibroblasts grown under asynchronous conditions (FIG. 10A). The extent of the cristae space is known to affect the overall chemiosmotic function in the cell (Mannella, 2006). […] Apart from ATP, mitochondria also produce the reactive oxygen species (ROS). Spontaneous ROS levels are usually low in normal cells as elevation of ROS levels can result in significant damage to cell structure (Schumacker, 2006). Indeed the level of ROS in asynchronous NHF was low as determined by the oxidation of 5-(and-6)-chloromethyl-2′,7′-dichlorodihydrofluorescein diacetate, acetyl ester (CM-H2DCFDA). […] Mitochondrial mass was determined by usage of a fluorescent dye Mitotracker Red 580 (200 nM, Invitrogen). […] The cells were subsequently washed, fixed and then analyzed in a Zeiss 510 Meta system with a 40×/0.95 Con objective. The fluorescence was captured initially for NHF and the acquisition parameters were kept unchanged for the capture of the fluorescence for the RTS cells. […] The activity was measured at 412 nm at 30° C. using 10 μg for each sample. Activity was expressed as nmole/min/mg of protein. Intracellular ROS in RTS cells was measured by the oxidation of CM-H2DCFDA (4 μM, Invitrogen). […]", "note": "“Also recorded” adds a separate entry of the source.", "data": [{"compound": "O=C1O[C@H]([C@@H](O)CO)C(O)=C1O", "note": "[ascorbic acid]", "values": [{"measurement": "effect on abnormally high ROS levels in RTS cells after DNA damage", "result": "decreases the load of reactive oxygen species; also recorded: reversed this effect"}]}]}
